{"source": "patent US8318749B2", "about": "“Quinazoline derivatives as NK3 receptor antagonists” (Hoffmann-La Roche Inc., priority 2008, dated 2012)"}
{"target": "T1, recombinant human NK3 receptor (Homo sapiens, UniProt P29371)", "T1 construct": "expressed in transfected cells; host or cells: HEK293 cells (transient expression), membrane preparation", "T1 sequence (P29371 1-465)": "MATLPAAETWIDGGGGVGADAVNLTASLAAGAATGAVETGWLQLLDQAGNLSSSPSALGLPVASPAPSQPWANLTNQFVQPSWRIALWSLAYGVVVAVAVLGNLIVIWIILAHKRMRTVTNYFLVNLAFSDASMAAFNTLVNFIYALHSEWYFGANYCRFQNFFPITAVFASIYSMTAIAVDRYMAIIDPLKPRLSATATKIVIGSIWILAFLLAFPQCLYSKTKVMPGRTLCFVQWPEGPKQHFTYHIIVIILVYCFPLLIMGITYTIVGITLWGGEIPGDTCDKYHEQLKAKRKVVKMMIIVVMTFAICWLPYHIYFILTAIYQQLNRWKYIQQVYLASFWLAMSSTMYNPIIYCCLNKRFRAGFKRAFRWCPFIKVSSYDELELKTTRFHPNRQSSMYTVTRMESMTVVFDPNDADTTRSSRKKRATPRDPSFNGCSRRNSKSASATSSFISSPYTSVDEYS", "assay": "[3H]SR142801 competition binding assay", "conditions": "membrane from HEK293 cells transiently expressing recombinant human NK3 receptor; radioligand [3H]SR142801; 75 min at RT", "procedure": "[^3H]SR142801 Competition Binding Assay\nhNK3 receptor binding experiment were performed using [^3H]SR142801 (Catalog No. TRK1035, specific activity: 74.0 Ci/mmol, Amersham, GE Healthcare UK limited, Buckinghamshire, UK) and membrane isolated from HEK293 cells transiently expressing recombinant human NK3 receptor. After thawing, the membrane homogenates were centrifuged at 48,000×g for 10 min at 4° C., the pellets were resuspended in the 50 mM Tris-HCl, 4 mM MnCl2, 1 μM phosphoramidon, 0.1% BSA binding buffer at pH 7.4 to a final assay concentration of 5 μg protein/well. […] At the end of the incubation, membranes were filtered onto unitfilter (96-well white microplate with bonded GF/C filter preincubated 1 h in 0.3% PEI+0.3% BSA, Packard BioScience, Meriden, Conn.) with a Filtermate 196 harvester (Packard BioScience) and washed 4 times with ice-cold 50 mM Tris-HCl, pH 7.4 buffer. Nonspecific binding was measured in the presence of 10 μM SB222200 for both radioligands. The radioactivity on the filter was counted (5 min) on a Packard Top-count microplate scintillation counter with quenching correction after addition of 45 μl of microscint 40 (Canberra Packard S.A., Zürich, Switzerland) and shaking for 1 h. Inhibition curves were fitted according to the Hill equation: y=100/(1+(x/IC50)^nH), where nH=slope factor using Excel-fit 4 software (Microsoft). IC50 values were derived from the inhibition curve and the affinity constant (Ki) values were calculated using the Cheng-Prussoff equation Ki=IC50/(1+[L]/KD) where [L] is the concentration of radioligand and KD is its dissociation constant at the receptor, derived from the saturation isotherm. All experiments were performed in duplicate and the mean±standard error (SEM) of the individual Ki values was calculated.", "units": {"Ki": "nM"}}
{"smiles": "O=C(NCc1ccccc1)C1(Cc2ccccc2)CCN(c2nc(O)c3cc(F)c(Cl)cc3n2)CC1", "note": "[Example 16, 4-Benzyl-1-(7-chloro-6-fluoro-4-hydroxy-quinazolin-2-yl)-piperidine-4-carboxylic acid benzylamide]", "Ki": 34.7}
{"smiles": "COc1ccc2c(O)nc(N3CCC(Cc4ccccc4)(C(=O)NCc4ccccc4)CC3)nc2c1", "note": "[Example 95, 4-Benzyl-1-(4-hydroxy-7-methoxy-quinazolin-2-yl)-piperidine-4-carboxylic acid benzylamide]", "Ki": 5.1}
{"smiles": "COc1cc2nc(N3CCC(Cc4ccccc4)(C(=O)NC4Cc5ccccc5C4)CC3)nc(N)c2cc1OC", "note": "[Example 19, 1-(4-Amino-6,7-dimethoxy-quinazolin-2-yl)-4-benzyl-piperidine-4-carboxylic acid indan-2-ylamie]", "Ki": 27.8}
{"smiles": "CC(C)Oc1ccc2nc(N3CCC(Cc4ccccc4)(C(=O)NCc4ccccc4)CC3)nc(O)c2c1", "note": "[Example 83, 4-Benzyl-1-(4-hydroxy-6-isopropoxy-quinazolin-2-yl)-piperidine-4-carboxylic acid benzylamide]", "Ki": 97.5}
{"smiles": "COc1cc2nc(N3CCC(Cc4ccccc4)(C(=O)NC4CCCC4)CC3)nc(O)c2cc1OC", "note": "[Example 53, 4-Benzyl-1-(4-hydroxy-6,7-dimethoxy-quinazolin-2-yl)-piperidine-4-carboxylic acid cyclopentylamide]", "Ki": 25.4}
{"smiles": "COc1cc2nc(N3CCC(CC4CC4)(C(=O)N(C)Cc4ccccc4)CC3)nc(O)c2cc1OC", "note": "[Example 75, 4-Cylcopropylmethyl-1-(4-hydroxy-6,7-dimethoxy-quinazolin-2-yl)-piperidine-4-carobxylic acid benzyl-methyl-amide]", "Ki": 47.8}
{"smiles": "CC(C)Oc1ccc2c(O)nc(N3CCC(Cc4ccccc4)(C(=O)NCc4ccccc4)CC3)nc2c1", "note": "[Example 96, 4-Benzyl-1-(4-hydroxy-7-isopropoxy-quinazolin-2-yl)-piperidine-4-carboxylic acid benzylamide]", "Ki": 11.2}
{"smiles": "COc1cc2nc(N3CCC(Cc4ccccc4)(C(=O)NC4CCc5ccccc5C4)CC3)nc(N)c2cc1OC", "note": "(stereo not shown) [Example 40, 1-(4-Amino-6,7-dimethoxy-quinazolin-2-yl)-4-benzyl-piperidine-4-carboxylic acid (1,2,3,4-tetrahydro-naphthalen-2-yl)-amide]", "Ki": 10.1}
{"smiles": "COc1cc2nc(N3CCC(Cc4ccccc4)(C(=O)NCc4cccnc4)CC3)nc(N)c2cc1OC", "note": "[Example 1, 1-(4-Amino-6,7-dimethoxy-quinazolin-2-yl)-4-benzyl-piperidine-4-carboxylic acid (pyridin-3-ylmethyl)-amide]", "Ki": 90.9}
{"smiles": "COc1cc2nc(N3CCC(Cc4ccccc4)(C(=O)Nc4cnn(C)c4)CC3)nc(O)c2cc1OC", "note": "[Example 59, 4-Benzyl-1-(4-hydroxy-6,7-dimethoxy-quinazolin-2-yl)-piperidine-4-carboxylic acid (1-methyl-1H-pyrazol-4-yl)-amide]", "Ki": 39.1}
{"smiles": "COc1cc2nc(N3CCC(Cc4ccccc4)(C(=O)NCc4ccc(OC(F)F)cc4)CC3)nc(N)c2cc1OC", "note": "[Example 20, 1-(4-Amino-6,7-dimethoxy-quinazolin-2-yl)-4-benzyl-piperidine-4-carboxylic acid 4-difluoromethoxy-benzylamide]", "Ki": 46.3}
{"smiles": "COc1cc2nc(N3CCC(Cc4ccccc4)(C(=O)NCc4ccco4)CC3)nc(N)c2cc1OC", "note": "[Example 46, 1-(4-Amino-6,7-dimethoxy-quinazolin-2-yl)-4-benzyl-piperidine-4-carboxylic acid (furan-2-ylmethyl)-amide]", "Ki": 43.8}
{"smiles": "COc1cc2nc(N3CCC(Cc4ccccc4)(C(=O)NCc4ccccc4)CC3)nc(O)c2cc1C", "note": "[Example 90, 4-Benzyl-1-(4-hydroxy-7-methoxy-6-methyl-quinazolin-2-yl)-piperidine-4-carboxylic acid benzylamide]", "Ki": 13.3}
{"smiles": "COc1cc2nc(N3CCC(Cc4ccccc4)(C(=O)NCc4ccccc4)CC3)nc(N)c2cc1OC", "note": "[Example 10, l-(4-Amino-6,7-dimethoxy-quinazolin-2-yl)-4-benzyl-piperidine-4-carboxylic acid benzylamide]", "Ki": 18.3}
{"smiles": "COc1cc2nc(N3CCC(Cc4ccccc4)(C(=O)NCc4ccccc4)CC3)nc(O)c2cc1OC(C)C", "note": "[Example 91, 4-Benzyl-1-(4-hydroxy-6-isopropoxy-7-methoxy-quinazolin-2-yl)-piperidine-4-carboxylic acid benzylamide]", "Ki": 5.4}
{"smiles": "COc1cc2nc(N3CCC(Cc4ccccc4)(C(=O)NC4CCCc5ccccc54)CC3)nc(N)c2cc1OC", "note": "(stereo not shown) [Example 23, 1-(4-Amino-6,7-dimethoxy-quinazolin-2-yl)-4-benzyl-piperidine-4-carboxylic acid (1,2,3,4-tetrahydro-naphthalen-1-yl)-amide]", "Ki": 46.6}
{"smiles": "COc1cc2nc(N3CCC(Cc4ccccc4)(C(=O)NCc4ccccc4)CC3)nc(O)c2cc1Cl", "note": "[Example 93, 4-Benzyl-1-(6-chloro-4-hydroxy-7-methoxy-quinazolin-2-yl)-piperidine-4-carboxylic acid benzylamide]", "Ki": 9.2}
{"smiles": "COc1cc2nc(N3CCC(Cc4ccccc4)(C(=O)NCc4ccccc4)CC3)nc(N(C)C)c2cc1OC", "note": "[Example 14, 4-Benzyl-1-(4-dimethylamino-6,7-dimethoxy-quinazolin-2-yl)-piperidine-4-carboxylic acid benzylamide]", "Ki": 73.2}
{"smiles": "COc1cc2nc(N3CCC(Cc4ccc(F)cc4)(C(=O)NCc4ccccc4)CC3)nc(N)c2cc1OC", "note": "[Example 4, 1-(4-Amino-6,7-dimethoxy-quinazolin-2-yl)-4-(4-fluoro-benzyl)-piperidine-4-carboxylic acid benzylamide]", "Ki": 37.3}
{"smiles": "COc1cc2nc(N3CCC(CC4CC4)(C(=O)NCc4ccccc4)CC3)nc(O)c2cc1OC", "note": "[Example 72, 4-Cyclopropylmethyl-1-(4-hydroxy-6,7-dimethoxy-quinazolin-2-yl)-piperidine-4-carboxylic acid benzylamide]", "Ki": 38.3}
{"smiles": "COc1cc2nc(N3CCC(Cc4ccccc4)(C(=O)NCc4ccccc4)CC3)nc(O)c2cc1OC", "note": "[Example 17, 4-Benzyl-1-(4-hydroxy-6,7-dimethoxy-quinazolin-2-yl)-piperdine-4-carboxylic acid benzylamide]", "Ki": 3.6}
{"smiles": "COc1cc2nc(N3CCC(Cc4ccccc4)(C(=O)NC(C)c4ccc(Cl)cc4)CC3)nc(N)c2cc1OC", "note": "(stereo not shown) [Example 25, 1-(4-Amino-6,7-dimethoxy-quinazolin-2-yl)-4-benzyl-piperidine-4-carboxylic acid [1-(4-chloro-phenyl)-ethyl]-amide]", "Ki": 95.1}
{"smiles": "COc1cc2nc(N3CCC(Cc4ccccc4)(C(=O)NCC4CCC4)CC3)nc(O)c2cc1OC", "note": "[Example 67, 4-Benzyl-1-(4-hydroxy-6,7-dimethoxy-quinazolin-2-yl)-piperidine-4-carboxylic acid cyclobutylmethyl-amide]", "Ki": 47.9}
{"smiles": "COc1cc2nc(N3CCC(CC4CCC4)(C(=O)NC4Cc5ccccc5C4)CC3)nc(O)c2cc1OC", "note": "[Example 79, 4-Cyclobutylmethyl-1-(4-hydroxy-6,7-dimethoxy-quinazolin-2-yl)-piperidine-4-carboxylic acid indan-2-ylamide]", "Ki": 83}
{"smiles": "COc1cc2nc(N3CCC(CC4CCC4)(C(=O)NC4CCc5ccccc5C4)CC3)nc(O)c2cc1OC", "note": "(stereo not shown) [Example 77, 4-Cylcobutylmethyl-1-(4-hydroxy-6,7-dimethoxy-quinazolin-2-yl)-piperidine-4-carboxylic acid (1,2,3,4-tetrahydro-naphthalen-2-yl)-amide]", "Ki": 36.2}
{"smiles": "COc1cc2nc(N3CCC(Cc4ccccc4)(C(=O)N[C@H](C)c4ccccc4)CC3)nc(N)c2cc1OC", "note": "[Example 49, 1-(4-Amino-6,7-dimethoxy-quinazolin-2-yl)-4-benzyl-piperidine-4-carboxylic acid ((R)-1-phenyl-ethyl)-amide]", "Ki": 20.6}
{"smiles": "COc1cc2nc(N3CCC(Cc4ccccc4)(C(=O)N(C)Cc4ccccc4)CC3)nc(O)c2cc1OC", "note": "[Example 54, 4-Benzyl-1-(4-hydroxy-6,7-dimethoxy-quinazolin-2-yl)-piperidine-4-carboxylic acid benzyl-methyl-amide]", "Ki": 4.8}
{"smiles": "COc1cc2nc(N3CCC(Cc4ccccc4)(C(=O)NCc4ccccc4)CC3)nc(O)c2cc1C#N", "note": "[Example 97, 4-Benzyl-1-(6-cyano-4-hydroxy-7-methoxy-quinazolin-2-yl)-piperidine-4-carboxylic acid benzylamide]", "Ki": 15.8}
